{"source": "patent US9193983B2", "about": "“Assays for mutagenesis detection” (The Regents of the University of California, priority 2007, dated 2015)", "key": {"[1]": {"assay": "well-based DEL assay (MTS colorimetric, 96/384-well): genotoxicity and cytotoxicity", "details": "Saccharomyces cerevisiae", "excerpt": "(§1) The RS112 yeast DEL assay tester strain of Saccharomyces cerevisiae contains a plasmid with an internal fragment of the HIS3 gene integrated at the genomic HIS3 locus, yielding an integrative disruption of the HIS3 gene. This disruption results in two copies of the HIS3 gene, each copy having one terminal deletion. Recombination between the two his3 deletion alleles results in reversion to HIS3^+ and growth in the absence of histidine. This recombination event leads to a 6 kb DNA deletion comprising the integrated plasmid leading to deletion (DEL) events. The assay utilizing DEL events involves overnight growth of a single colony of the RS112 strain and subsequent subculture with the presence or absence of the chemical being tested for 17 hours at 30° C. under constant shaking. Yeast are then plated onto SC medium to determine the number of survivors (individual colonies are counted) and onto SC-HIS medium to score for DEL events. The traditional DEL assay is very powerful if one is testing a limited number of chemicals but becomes impractical for screening large numbers of chemicals and chemical libraries.\n(§2) For 384-well plate format, 1 μl of yeast (˜100,000 cells) was pipetted into 8 microplate wells for each compound, four of which containing 70 μl SC media and four containing 70 μl SC-HIS media; each well was supplemented with 14 μl of MTS and 5 μl of compound. For 96-well plate format, the above was consistent except media, MTS, and compound volumes were 100 μl, 20 μl, and 7 μl, respectively. Control wells were treated with water in lieu of compound. The outermost columns of the 96-well plate and outer two columns of each 384-well plate were excluded from experimentation lest edge evaporative effects alter the data. Plates were incubated at 30° C. at normal atmosphere during which yeast were grown in the presence of the tested compound and 490 nm absorbance was measured 10-18 hr later using a Molecular Devices SpectraMax M5 microplate reader (Sunnyvale, Calif.).\n(§3) Survival for a given compound treatment was quantified by averaging the absorbance across the four treated wells in SC media and dividing that by the average absorbance of control wells. DEL induction was quantified by dividing the absorbance of each SC-HIS well by the corresponding paired SC well. Thus for each compound done in quadruplicate, each plate contains a set of 4 different measurements of DEL induction. For each compound, ratio of the average DEL induction in treated versus control cultures was taken as the fold-increase in DEL events (HIS^+ growth). A Student's t-test was performed on the 4 measurements of DEL induction and the same measurements recorded from control wells to determine significance of the fold-increase. It should be noted that this value of fold-increase is analyzed statistically for significance and not absolute; thus two different chemicals may have the same fold-increase but varying levels of significance. In plots and tables, data from a single experiment performed in quadruplicate is presented; all experiments were repeated independently in at least 3 separate experiments in both 96 and 384-well plate formats."}, "[2]": {"test_system": "S. cerevisiae strain RS112", "assay": "well-based DEL assay (MTS colorimetric, 96/384-well): genotoxicity and cytotoxicity", "excerpt": "as §1, §2, §3"}, "Saccharomyces cerevisiae": {"test_system": "Saccharomyces cerevisiae", "details": "cited from earlier work"}, "[3]": {"details": "concentrations as low as 1 μM (~0.3 μg/ml)"}, "[4]": {"details": "S. cerevisiae strain RS112 (diploid yeast cells)"}}, "data": [{"molecule": "O=C(O)CCCc1ccc(N(CCCl)CCCl)cc1", "note": "[Chlorambucil, chlorambucil]", "values": [{"measurement": "viability at 1 μM", "setting": "[1]", "value": 82.4, "unit": "%"}, {"measurement": "viability at 10 μM", "setting": "[1]", "value": 35.7, "unit": "%"}, {"measurement": "viability at 30 μM", "setting": "[1]", "value": 20.5, "unit": "%"}, {"measurement": "Cytotoxicity significance", "setting": "[2]; 1 μM final in well", "value": "** (** (p < 0.01))"}, {"measurement": "DEL (fold increase)", "setting": "[2]; 1 μM final in well", "value": 1.18, "unit": "fold"}, {"measurement": "DEL significance", "setting": "[2]; 1 μM final in well", "value": "* (* (p < 0.05))"}, {"measurement": "Cytotoxicity significance", "setting": "[2]; 10 μM final in well", "value": "*** (*** (p < 0.005))"}, {"measurement": "DEL (fold increase)", "setting": "[2]; 10 μM final in well", "value": 2.37, "unit": "fold"}, {"measurement": "DEL significance", "setting": "[2]; 10 μM final in well", "value": "*** (*** (p < 0.005))"}, {"measurement": "Cytotoxicity significance", "setting": "[2]; 30 μM final in well", "value": "*** (*** (p < 0.005))"}, {"measurement": "DEL (fold increase)", "setting": "[2]; 30 μM final in well", "value": 3.58, "unit": "fold"}, {"measurement": "DEL significance", "setting": "[2]; 30 μM final in well", "value": "*** (*** (p < 0.005))"}, {"measurement": "cytotoxicity", "setting": "[2]; [3]", "value": "significant genotoxicity and cytotoxicity"}, {"measurement": "genotoxicity", "setting": "[2]; [3]", "value": "significant genotoxicity and cytotoxicity"}, {"measurement": "DEL events (DNA deletions) induced by crosslinking agents", "setting": "[2]; well-based DEL assay", "value": "significant increase in DEL events"}]}, {"molecule": "O=P1(N(CCCl)CCCl)NCCCO1", "note": "(centres unmarked) [Cyclophosphamide, cyclophosphamide monohydrate]", "values": [{"measurement": "viability at 50 μM", "setting": "[1]", "value": 109, "unit": "%"}, {"measurement": "viability at 100 μM", "setting": "[1]", "value": 104, "unit": "%"}, {"measurement": "viability at 200 μM", "setting": "[1]", "value": 96.2, "unit": "%"}, {"measurement": "DEL (fold increase)", "setting": "[2]; 50 μM final in well", "value": 0.77, "unit": "fold"}, {"measurement": "DEL significance", "setting": "[2]; 50 μM final in well", "value": "ns (ns—not significant (p > 0.05))"}, {"measurement": "DEL (fold increase)", "setting": "[2]; 100 μM final in well", "value": 0.74, "unit": "fold"}, {"measurement": "DEL significance", "setting": "[2]; 100 μM final in well", "value": "ns (ns—not significant (p > 0.05))"}, {"measurement": "Cytotoxicity significance", "setting": "[2]; 200 μM final in well", "value": "ns (ns—not significant (p > 0.05))"}, {"measurement": "DEL (fold increase)", "setting": "[2]; 200 μM final in well", "value": 0.95, "unit": "fold"}, {"measurement": "DEL significance", "setting": "[2]; 200 μM final in well", "value": "ns (ns—not significant (p > 0.05))"}, {"measurement": "DEL fold-increase", "setting": "[2]; up to 200 μM", "value": "no DEL fold-increase"}]}, {"molecule": "C[S+](C)[O-]", "note": "[DMSO, dimethyl sulfoxide]", "values": [{"measurement": "DEL (fold increase)", "setting": "[2]; 1% (solvent tested alone)", "value": 0.96, "unit": "fold"}, {"measurement": "DEL significance", "setting": "[2]; 1% (solvent tested alone)", "value": "ns (ns—not significant (p > 0.05))"}, {"measurement": "DNA deletion potential (DEL events) of solvent alone", "setting": "[2]; compared to control treated yeast", "value": "neither solvents generated any differentiable response"}]}, {"molecule": "CCOS(C)(=O)=O", "note": "[EMS, ethyl methanesulfonate]", "values": [{"measurement": "viability at 2 μg/ml", "setting": "[1]; [4]", "value": 38.2, "unit": "%"}, {"measurement": "viability at 5 μg/ml", "setting": "[1]; [4]", "value": 8.36, "unit": "%"}, {"measurement": "viability at 10 μg/ml", "setting": "[1]; [4]", "value": 6.7, "unit": "%"}, {"measurement": "Cytotoxicity significance", "setting": "[2]; 2 μg/ml final in well", "value": "*** (*** (p < 0.005))"}, {"measurement": "DEL (fold increase)", "setting": "[2]; 2 μg/ml final in well", "value": 1.59, "unit": "fold"}, {"measurement": "DEL significance", "setting": "[2]; 2 μg/ml final in well", "value": "*** (*** (p < 0.005))"}, {"measurement": "Cytotoxicity significance", "setting": "[2]; 5 μg/ml final in well", "value": "*** (*** (p < 0.005))"}, {"measurement": "DEL (fold increase)", "setting": "[2]; 5 μg/ml final in well", "value": 3.19, "unit": "fold"}, {"measurement": "DEL significance", "setting": "[2]; 5 μg/ml final in well", "value": "*** (*** (p < 0.005))"}, {"measurement": "Cytotoxicity significance", "setting": "[2]; 10 μg/ml final in well", "value": "*** (*** (p < 0.005))"}, {"measurement": "DEL (fold increase)", "setting": "[2]; 10 μg/ml final in well", "value": 2.65, "unit": "fold"}, {"measurement": "DEL significance", "setting": "[2]; 10 μg/ml final in well", "value": "*** (*** (p < 0.005))"}, {"measurement": "growth in +13 media (cytotoxicity)", "setting": "[2]; 2, 5 and 10 μg/ml", "value": "diminished growth in +13 media"}, {"measurement": "growth in −HIS media (genotoxicity)", "setting": "[2]; 2, 5 and 10 μg/ml", "value": "increased growth in −HIS media"}]}, {"molecule": "COS(C)(=O)=O", "note": "[MMS, methylmethane sulfonate]", "values": [{"measurement": "viability at 10 nM", "setting": "[1]; [4]", "value": 81.2, "unit": "%"}, {"measurement": "viability at 100 nM", "setting": "[1]; [4]", "value": 74.8, "unit": "%"}, {"measurement": "viability at 500 nM", "setting": "[1]; [4]", "value": 38.6, "unit": "%"}, {"measurement": "viability at 1000 nM", "setting": "[1]; [4]", "value": 20.3, "unit": "%"}, {"measurement": "Cytotoxicity significance", "setting": "[2]; 10 nM final in well", "value": "*** (*** (p < 0.005))"}, {"measurement": "DEL (fold increase)", "setting": "[2]; 10 nM final in well", "value": 1.54, "unit": "fold"}, {"measurement": "DEL significance", "setting": "[2]; 10 nM final in well", "value": "** (** (p < 0.01))"}, {"measurement": "Cytotoxicity significance", "setting": "[2]; 100 nM final in well", "value": "*** (*** (p < 0.005))"}, {"measurement": "DEL (fold increase)", "setting": "[2]; 100 nM final in well", "value": 1.68, "unit": "fold"}, {"measurement": "DEL significance", "setting": "[2]; 100 nM final in well", "value": "*** (*** (p < 0.005))"}, {"measurement": "Cytotoxicity significance", "setting": "[2]; 500 nM final in well", "value": "*** (*** (p < 0.005))"}, {"measurement": "DEL (fold increase)", "setting": "[2]; 500 nM final in well", "value": 2.16, "unit": "fold"}, {"measurement": "DEL significance", "setting": "[2]; 500 nM final in well", "value": "*** (*** (p < 0.005))"}, {"measurement": "Cytotoxicity significance", "setting": "[2]; 1000 nM final in well", "value": "*** (*** (p < 0.005))"}, {"measurement": "DEL (fold increase)", "setting": "[2]; 1000 nM final in well", "value": 3.09, "unit": "fold"}, {"measurement": "DEL significance", "setting": "[2]; 1000 nM final in well", "value": "*** (*** (p < 0.005))"}, {"measurement": "cytotoxicity", "setting": "[2]; each concentration between 10-1000 nM", "value": "increasingly significantly cytotoxic"}, {"measurement": "DEL fold-increase", "setting": "[2]; lowest dose tested of 10 nM (0.0011 μg/ml)", "value": "significant increase in DEL fold-increase"}]}, {"molecule": "CC(=O)N[C@@H](CS)C(=O)O", "note": "[NAC, N-acetylamine]", "values": [{"measurement": "protection against HNO induced DNA deletions", "setting": "Saccharomyces cerevisiae", "value": "protected"}]}]}
